# Measurements: US20190298717A1 (BOARD OF REGENTS, THE UNIVERSITY OF TEXAS SYSTEM, priority 2016, published 2019)
# Entries after “also recorded” stand apart in the source; their conditions may differ.
# How the values were obtained:
# [1] = system: HEK293 overexpressing mutated tau-RD (P301L/V337M), Clone 9; conditions: 10 μM, 48 h
# Protocol: Two monoclonal cell lines of HEK293 overexpressing mutated tau-RD (repetitive domain; P301L/V337M) were selected; 1) Clone 1: used as control expressing truncated tau from amino acid 244 to 372, with P301L/V337M mutations which produces soluble non-toxic tau, and 2) Clone 9: which generates an aggregated form of tau (11). Three parameters were measured: cell viability, NAD, and ATP content.
# [2] = system: Nrf2 knockdown SH-SY5Y cells; conditions: Nrf2 siRNA knockdown, 24 h
# Protocol: (§1) GSH is regulated by the rate-limiting enzyme GCL consisted of GCLc and GCLm subunits. […] The inventors then used extracellular lactate dehydrogenase cytotoxicity assay to measure cell survival.
# (§2) Cell Viability and Cytotoxicity Assay. Cell growth was analyzed using the MTT cell viability assay. Briefly, at the end of incubation/treatment, MTT reagent was diluted in culture medium and aliquoted into each well. After incubation for 2 hours, the medium was aspirated and DMSO was aliquoted into each well to disrupt the cells and dissolve the intracellular MTT dyes. Absorbance was read at 570 nm wavelength in a 96-well plate reader. Cell toxicity was detected using a LDH cell toxicity assay kit (Promega, Fitchburg Wis.). This is a coupled enzymatic assay that detects a visible color signal initially described by Nachlas et. al. The reagent contained excess concentrations of lactate and NAD+as substrates to drive the LDH reaction and produce NADH. In the presence of diaphorase, NADH drives the enzyme-catalyzed conversion of iodonitro-tetrazolium violet to a red formazan product. Briefly, DMEM medium was withdrawn from each well of the plate after treatment and briefly centrifuged to get rid of floating cells or cell debris. […] The absorbance was read at 490 nm in a 96-well plate reader. […]
# [3] = system: HeLa cells expressing EGFP-HD103Q; conditions: 48 hours
# Text: The fraction of EGFP-positive cells expressing aggregates under different conditions were plotted as odds ratios taking Ctrl value as 1. Error bars show 95% confidence interval. […] Error bars show SD.
# [4] = system: Nrf2 and HO-1
# Protocol: (§3) The inventors first measured the cell proliferation to evaluate the stress caused by expression of tau fibrils in aggregate-positive and negative cells (FIG. 6A). […] The inventors also measured the concentration of superoxide ions (O2-), a detrimental byproduct of oxidative phosphorylation, as an ROS representative. […] The inventors next measured expression of Nrf2 and HO-1 in the same cells (FIG. 6C). […] Aggregate-positive and -negative KD cells were treated with 200 μM H2O2 for 24 h. Cytotoxicity was measured as release of LDH.
# (§4) Western Blot Analysis. Protein expression was determined by Western blot analysis. Equal amount of protein from each sample was run in Tris-glycine SDS PAGE gel, followed by transferring to PVDF membrane. After blocking the membrane with 5% milk for 1 hour at room temperature, the membrane was incubated further for 2 hours with antibodies specific for target proteins: Nrf2, pNrf2(S40) from Novus (Littleton, Colo.); Keap1, HO-1, NQO1, GCLc, GCLm and lamin B1 from Cell Signaling (Danvers, Mass.); GAPDH from Santa Cruz (Dallas, Tex.); β-Actin from Thermo Fisher (Waltham, Mass.). The membrane was subsequently incubated with species-specific HRP-conjugated secondary antibody followed by incubation with chemiluminescence substrate and imaging. The band intensity of each of the target proteins was quantified using ImageQuant software (GE Healthcare, Sweden). Western blot analysis on worm lystaes was done similarly. […] Equal amounts of protein were run on the gel and SKN-1 protein level was detected using anti-GFP antibody.
# [5] = system: GSK3β and Tau; test: p-GSK3β (S9) and p-Tau (S396) Western blot; conditions: 10 μM, 24 hours
# Protocol: Densitometry values were normalized against actin. […] The levels of p-Tau and total Tau were measured by Western blot analysis. […] Densitometry values were normalized to actin using Image J software. All of the western blot quantification values (shown in the right panel) are mean±SD from two technical replicates (n=2).
# A known GSK3β inhibitor LiCl (lithium chloride) (10 mM) was used as a positive control [9]. After the treatment, cells were lysed and equal amounts of total lysate were resolved on SDS-PAGE for western blot analysis using phospho-GSK3β (S9) (phosphorylation at this residue reduces the GSK3β kinase activity) and pTau antibodies [12,13]. […] The inventors analyzed the level of Tau phosphorylation at S396 (FIG. 18C).
# [6] = data not shown
# [7] = system: Nrf2 transcriptional activity (ARE)
# Protocol: Trx1 reduces the cysteine residues critical for binding of Nrf2 to AREs (Hansen et al., 2004).
# Nrf2 Transcriptional Activity Assay. The transcriptional activity of Nrf2 was determined using a luciferase-based transcription activation approach. A vector carrying a […] controlled luciferase gene (firefly luciferase) and a vector carrying the control luciferase (Renilla luciferase) from an ARE reporter kit (BPS Bioscience, San Diego, Calif.) was transiently co-transfected into the cells using Lipofectamine reagents (Thermo Fisher, Waltham, Mass.). […] Briefly, the cells were incubated with firefly luciferase substrate for 10 minutes prior to measurement luminescence in a 96-well luminescence plate reader. Subsequently, the Renilla luciferase was measured after the addition of Dual-Glo Stop & Glo reagent into the wells with a 10-minute incubation. The ratio of luminescence from firefly and Renilla was calculated to normalize and compare the Nrf2 transcriptional activity.
# [8] = system: GCLc, GCLm, HO-1, and NQO-1; conditions: SH-SY5Y, 24 h
# Protocol: as §1, §4
# [9] = system: SH-SY5Y cells; test: MTT cell viability under H2O2 induced stress; format: cell-based, human; conditions: 100 μM H2O2 24 h; 10 and 25 μM compound; listed as hydralazine
# Protocol: To generate intracellular aldehydes, the inventors treated human neuroblastoma cell line (SH-SY5Y) with 100 μM hydrogen peroxide (H2O2) for 24 h. Carbonyl groups were quantified using 2,4-DNPH (dinitrophenylhydrazine) assay.
# as §2
# [10] = system: glutathione S-transferase-4 (GST-4)
# Protocol: The inventors measured the expression of glutathione S-transferase-4 (GST-4), a downstream target of SKN-1, in a transgenic strain (CL2166) expressing GFP driven by the GST-4 promoter (Kahn et al., 2008).
# Imaging. To measure the GFP intensity, synchronized populations of worms were anesthetized and arranged on agarose pad. The intestinal SKN-1::GFP was assayed by confocal microscopy (X40) (Nikon A1R, Nikon Instruments Inc., Melville, N.Y., USA) (FIG. 5A). The quantification of intestinal SKN-1::GFP was performed with ImageJ (FIG. 5B). The ASI SKN-1::GFP was assayed by a Zeiss Axiolmager M2 microscope equipped with a Hamamatsu Flash 4.0 Scientific c-mos camera and Zen2 software (X40) (FIG. 5D). The quantification of ASI SKN-1::GFP was performed with ImageJ using a sliding paraboloid algorithm for reducing the background followed by edge detection. The t-test was conducted with Welsh correction since the standard deviations were not equal (FIG. 5E). The GSTp::GFP intensity was measured same as ASI SKN-1::GFP but with ×5 magnification. The GSTp::GFP quantification was done using the whole worm signal following the same protocol as intestinal SKN-1::GFP (FIG. 5G).
# [11] = system: Nrf2 pathway; conditions: SH-SY5Y, 10 μM, 24 h
# Protocol: Cell culture in SILAC media and Lysate Preparation. SHY-SY5Y cells were grown in Dulbecco's modified Eagle's medium containing either unlabeled L-Proline, L-arginine (Argo) and L-lysine (Lyso) or L-Proline, heavy isotope-labeled L-arginine-^13C6^14N4(Arg^10) and L-lysine-^13C6-^15N2 (Lys^8) (Cambridge Isotope Laboratories, Inc.) supplemented with 10% dialyzed fetal bovine serum (Thermo Fischer, Waltham, Mass.). […] After treatment, cells were harvested by trypisinization, washed three times with cold PBS and lysed in a buffer containing 6M Urea, 2M Thio-urea, 1% SDS and 100 mM Tris/HCl, pH 8.0 with protease (Thermo Fischer, Waltham, Mass.) and phosphatase inhibitors. After incubation for 15 min at RT and sonication, the samples were clarified by centrifugation for 15 min at 20,000×g. Protein content was determined using the 660 nM protein assay kit (Thermo Fisher, Waltham, Mass.) according to the manufacturer's instructions.
# Protein Digestion and Peptide Fractionation. […] The mix digest (300 μg) was then fractionated into six fractions via strong cation exchange (SCX). […]
# Mass Spectrometry for SILAC. All the fractions were analyzed using a Q-Exactive HF mass spectrometer (Thermo Electron, Burlingame, Calif.) coupled to an Ultimate 3000 RSLCnano HPLC systems (Thermo Electron, Sunnyvale Calif.). […]
# [12] = system: primary cortical neuronal cells; conditions: 0.1, 1, 10 μM, 1 μM rotenone, 24 hours
# Protocol: as §3
# (§5) Cell Viability and Cytotoxicity Assay. Cell growth was analyzed using the MTT cell viability assay. Briefly, at the end of incubation/treatment, MTT reagent was diluted in culture medium and aliquoted into each well. After incubation for 2 hours, the medium was aspirated and DMSO was aliquoted into each well to disrupt the cells and dissolve the intracellular MTT dyes. Absorbance was read at 570 nm wavelength in a 96-well plate reader. Cell toxicity was detected using a LDH cell toxicity assay kit (Promega, Fitchburg Wis.). This is a coupled enzymatic assay that detects a visible color signal initially described by Nachlas et. al. The reagent contained excess concentrations of lactate and NAD+as substrates to drive the LDH reaction and produce NADH. In the presence of diaphorase, NADH drives the enzyme-catalyzed conversion of iodonitro-tetrazolium violet to a red formazan product. Briefly, DMEM medium was withdrawn from each well of the plate after treatment and briefly centrifuged to get rid of floating cells or cell debris. Then, the medium supernatant was mixed with equal volume of substrate/enzyme mixture included in the kit (lactate, NAD+, diaphorase and iodonitro-tetrazolium violet), followed by incubation at room temperature for 15 minutes before the addition of acetic acid to cease the reaction. The absorbance was read at 490 nm in a 96-well plate reader. […] Cell viability assay was performed using CellTiter-Glo assay.
# [13] = system: HEK293 cells overexpressing tau residues 244 to 372, with mutations of P301L and V337M
# Protocol: as §3, §5
# [14] = tau aggregate cells treated with 0, 10, 20 μM (FIG. 6C), comparator not stated
compound,measurement,setting,value
NNc1nncc2ccccc12 [Hydralazine],"cell viability, NAD, and ATP content of Clone 9",[1],shows improvement in all three aspects
same,protection from H2O2-induced cytotoxicity in Nrf2 knockdown cells (LDH),[2],no protection
same,EGFP-HD103Q poly Q aggregates,[3],disappearance of higher order poly Q aggregates
same,Nrf2 expression with hydralazine and rotenone compared to rotenone only,"[4]; aggregate-positive cells, 20 μM, 1 μM rotenone, 24 h",higher
same,HO-1 expression increase,[4]; [14],~25%
same,"Nrf2 expression, higher",[4]; [14],1.5 fold
same,"Tau phosphorylation at S396, compared to positive control LiCl",[5],reduces the hyper-phosphorylation of Tau even more
same,pro-oxidant environment (DCFH-DA intensity),[6],does not create a mild pro-oxidant environment
same,ARE binding elevation,[7]; SH-SY5Y,2 fold
same,luciferase activity compared to untreated cells,"[7]; SH-SY5Y with ARE-luciferase reporter, 24 h, both concentrations",2.0±0.2 folds
same,HO-1 upregulation,[8],30%
same,NQO-1 upregulation,[8],40%
same,"expression of GCLc, GCLm, HO-1, and NQO-1",[8]; Western blotting,significant increase in expression
same,cell viability under H2O2 induced cell death (MTT),[9],significantly improved; also recorded: provided protection in a dose-dependent manner
same,GST-4p::GFP signal in worms fed skn-1(RNAi) or skn-1(zu67),"[10]; 100 μM, 72 h",did not increase GFP signal
same,GST-4p::GFP signal,"[10]; strain CL2166, 48 h after treatment",significant increase in the GFP signal
same,"Nrf2 pathway activation, IPA Z score",[11],0.156
same,viability of primary neuronal cells under rotenone,[12],rescues primary neuronal cells from rotenone toxicity in a dose-dependent manner
same,cell viability under rotenone,"[13]; 20 μM, 1 μM rotenone, 24 h",protects both aggregate-positive and negative cells
same,cell viability in Nrf2 KD cell line,[13]; Nrf2 knockdown tau cells,did not improve cell viability
same,cell growth of aggregate-positive cells,[13]; tau aggregate-positive HEK293,improved
